# Measured values from patent US6900238B1, “HIV protease inhibitors” (The Scripps Research Institute, priority 1995, dated 2005).
# Like-named read-outs stand apart in the source and are kept apart here. Peptide text beside a SMILES is read from it. * marks the point of attachment. Cbz = O=C(OCc1ccccc1)*; NHtBu = CC(C)(C)N*
# Tests used:
# HIV-1 protease [1] = target: T1, HIV-1 protease (Human immunodeficiency virus type 1 group M subtype B, UniProt P03369); experiment: HIV protease inhibition, fluorogenic peptide substrate cleavage (IC50 and Ki); type: biochemical; conditions: for IC50: read-out: HIV PR IC50; for Ki: read-out: HIV PR Ki
# T1 construct: HIV PR is a 99 amino acid aspartyl protease which functions as a homodimer; made in house; host or cells: no host: total chemical synthesis
# Experimental: The solution was mixed and incubated over 5 minutes during which time the rate of substrate cleavage was monitored by continuously recording the change in fluorescence of the assay solution. An excitation filter of 325 nm, and an emission filter of 420 nm were used.
# Determination of Ki for HIV protease was performed similarly with the following modifications. The substrate concentrations used were 57, 43, 28 and 14 μM. All other concentrations were as above. The curve fit for the data was determined and the subsequent Ki derived using a computer program based on the equation of Morrison et. al. BioChim. Biophys. ACTA 1969, 185, 269, for tight binding inhibitors.
# The synthetic HIV-protease containing a thioester linkage available from CalBiochem (San Diego) can also be used. The enzyme activity was assayed with the fluorogenic substrate Ac-Thr-Ile-Nle-Phe(P—NO2)-Gln-Arg-NH2 (from CalBiochem, San Diego) according to the procedure described in the literature. Inhibition analysis was performed in the presence of the inhibitor and expressed with IC50 (the concentration of inhibitor that causes 50% inhibition of the enzyme activity).
# FIV protease = target: T2, FIV protease (Feline immunodeficiency virus, UniProt P16088); experiment: FIV protease inhibition, peptide substrate cleavage by HPLC (IC50 and Ki); type: biochemical
# T2 construct: an 18.6 kDa precursor, which auto-processed to a 13.2 kDa FIV PR plus N- and C-terminal fragments; made in house; host or cells: E. coli BL21.DE3, lys S (pT7-7 vector)
# Experimental: For determination of K1 and IC50 for FIV protease, 0.125 μg of the enzyme was added to a solution (100 μL final volume) containing inhibitor, 560 μM peptide substrate (sequence Gly-Lys-Glu-Glu-Gly-Pro-Pro-Gln-Ala-Tyr-Pro-Ile-Gln-Thr-Val-Asn-Gly) and 2% dimethyl sulfoxide in a 1:3 mixture of assay buffer (as above) and 4M NaClaq. solution. The solution was mixed and incubated for 10 minutes at 37° C. and the reaction quenched by addition of 8 M guanidine HCl solution containing 0.2 M sodium acetate at pH 4.2 (100 μL). The cleavage products and substrate were separated by reverse phase HPLC. Absorbance was measured at 215 nm, peak areas were determined and percent conversion to product was calculated using relative peak areas. The data were plotted as 1/V (V=rate substrate is cleaved in nmol/min) against inhibitor concentration and the—Ki determined as the point at which the resulting line intersects with 1/Vmax (Vmax=6.85 nmol/min). IC50 was determined as the inhibitor concentration at 50% inhibition. Vmax (6.85±0.7 nmol min^−1) and Km (707±70 μM) for FIV protease were determined from a plot of 1/V (V=rate in nmol/min) against 1/[S] ([S]=substrate concentration in […]). The data used was generated similarly to that for Ki with the following modifications. The substrate concentrations used were 560, 448, 336, 224, 111 and 56 μM, in the absence of inhibitor.
# Purification of FIV protease: A 503 base pair Eco Rl-Bam Hl fragment containing the coding sequence of FIV protease was cloned from FIV-34TF10 (Talbott et. al. Proc. Natl. Acad. Sci. USA 86 1989, 5743) into the pT7-7 vector (Tabor et. al. Proc. Natl. Acad. Sci USA 82 1985, 1074). The 5′ end of the insert was modified by the addition of an Ndel adaptor, which provided the proper reading frame with initiation of translation from the methionine encoded in the latter site. […] The construct was transformed into E. coli strain BL21.DE3, lys S (Studier et. al. Meth. Enzymol. 1990, 185, 60) and overnight cultures were used to inoculate 15 liter fermentations, performed using Circlegrow medium (Bio 101) plus […] ampicillin, 20 μM chloramphenicol, at 37° C. The cells were allowed to reach mid-log phase, then the temperature was reduced to 24° C. and IPTG (isopropylB-thiogalactopyranoside) was added to a final concentration of 1 mM. The fermentation was allowed to proceed for 16 hours, at which time the cells were harvested by centrifugation and frozen at −70° C. in 100 g aliquots for future use.
# Cells (100 g) were lysed by addition of 600 mL, 50 mM Tris-HCl, pH 8, 5 mM EDTA and 2 mM 2-mercaptoethanol to the frozen pellet. The cells lysed upon thawing and the viscous mixture was homogenized at 4° C. for 2 min in a Waring blender. The sample was centrifuged at 8,000×g for 20 min and the pellet discarded. […]
# [2] = 13C NMR study of hydration of the ketone moiety in the presence of water; type: physicochemical; conditions: deuterated DMSO/D2O (5:1), incubation for 24 hours
# Description: The ketone moiety of the α-keto amide 2 is disclosed to be hydrated and is hydrogen bonding in a similar manner to that of compound 23.
# HIV-1 protease [3] = target: T1, HIV-1 protease; conditions: known HIV PR inhibitor; cited from earlier work
compound,measurement,setting,value
"CC(C)(C)NC(=O)[C@@H]1CCCN1C(=O)C(=O)C(Cc1ccccc1)NC(=O)OCc1ccccc1 (mixture of isomers) [Compound 2, (3S) and (3R) 3-(N-Benzyloxycarbonyl)amino-2-keto-4-phenylbutyryl-L-prolyl-tert-butyl Amide]",fold better than the corresponding hydroxyethylamine isosteric structure as inhibitor of the HIV protease,HIV-1 protease [1],approximately 300 fold
same,fold better than the corresponding phosphinic acid derivative as inhibitor of the HIV protease,HIV-1 protease [1],~1300 fold
same,IC50,HIV-1 protease [1],0.7 µM
same,Ki,HIV-1 protease [1],0.214 µM
same,time dependent inhibition of HIV PR,HIV-1 protease [1]; time dependent assays,do not exhibit time dependent inhibition
same,inhibitory effect against FIV PR,FIV protease; added in concentrations up to 70 mM,no inhibitory effect
same,hydration of the ketone moiety in the presence of water,[2],remains unhydrated
CC[C@H](C)[C@H](NC(=O)[C@@H]1CCCN1C(=O)C(=O)C(Cc1ccccc1)NC(=O)OCc1ccccc1)C(=O)N[C@@H](CCC(N)=O)C(=O)OC(C)(C)C (mixture of isomers) [Compound 4],Ki,HIV-1 protease [1],0.154 µM
same,IC50,FIV protease; read-out: FIV PR IC50,25 µM
same,Ki,FIV protease; read-out: FIV PR Ki,29 µM
"COC[C@@H]1[C@@H](OC)[C@H](OC)[C@H](COC)N1C(=O)C(=O)C(Cc1ccccc1)NC(=O)OCc1ccccc1 (mixture of isomers) [Compound 12, (3S) and (3R) 3-(N-Benzyloxycarbonyl)amino-2-keto-4-phenylbutyryl-(2′(R), 5′(R)-bis(methoxymethyl]-3′(R), 4′(S)-dimethoxypyrrolidine]]",IC50,HIV-1 protease [1],20 µM
same,Ki,HIV-1 protease [1],20 µM
CC(C)(C)NC(=O)C1CCCN1C(=O)C(Cc1ccccc1)NC(=O)OCc1ccccc1 (stereo not drawn) [Cbz-Phe-Pro-NBu^t] (Cbz-Phe-Pro-NHtBu; configuration not given here),cleavage by HIV protease,HIV-1 protease [1]; normal assay conditions,not cleaved
same,cleavage by FIV protease,FIV protease; normal assay conditions,not cleaved
COC(=O)[C@@H]1CCCN1C(=O)C(=O)C(Cc1ccccc1)NC(=O)OC(C)(C)C (stereo partly shown) [Compound 1],IC50,HIV-1 protease [1],6 µM
same,Ki,HIV-1 protease [1],6 µM
"COCC1CCC(COC)N1CC(O)C(Cc1ccccc1)NC(=O)OCc1ccccc1 [Compound 5, N-[1-Phenyl-2(S)-[(benzyloxycarbonyl)amino]-3(R)-hydroxybutan-4-[2′ (R), 5′ (R)-bis(methoxymethyl)]-pyrrolidine]",IC50,HIV-1 protease [1],1800 µM
"COCC1C(OC)C(OC)C(COC)N1CC(O)C(Cc1ccccc1)NC(=O)OCc1ccccc1 [Compound 6, N-[1-Phenyl-2(S)-[(benzyloxycarbonyl)amino]-3(R)-hydroxybutan-4-[2′(R), 5′(R)-bis(methoxymethyl)-3′(R), 4′(S)-dimethoxy]-pyrrolidine]",IC50,HIV-1 protease [1],100 µM
COC[C@H]1CCCN1C[C@@H](O)[C@H](Cc1ccccc1)NC(=O)OCc1ccccc1 [Compound 7],IC50,HIV-1 protease [1],1600 µM
CC(C)(C)NC(=O)[C@@H]1CCCN1C[C@@H](O)[C@H](Cc1ccccc1)NC(=O)OCc1ccccc1 [Compound 8],IC50,HIV-1 protease [1],60 µM
"CO[C@H]1CC(C(=O)NC(C)(C)C)N(C[C@@H](O)[C@H](Cc2ccccc2)NC(=O)OCc2ccccc2)C1 (stereo partly drawn) [Compound 9, N-(1-Phenyl-2(S)-[(benzyloxycarbonyl)amino]-3(R)-hydroxybutan-4-(tert-butylamido)-4′(S)-methoxy]-pyrrolidine]",IC50,HIV-1 protease [1],17 µM
CO[C@@H]1C[C@@H](C(=O)NC(C)(C)C)N(C[C@@H](O)[C@H](Cc2ccccc2)NC(=O)OCc2ccccc2)C1 [Compound 10],IC50,HIV-1 protease [1],2.9 µM
CC(C)(C)NC(=O)[C@@H]1C[C@@H](OCc2ccccc2)CN1C[C@@H](O)[C@H](Cc1ccccc1)NC(=O)OCc1ccccc1 [Compound 11],IC50,HIV-1 protease [1],3.9 µM
"CC(C)(C)NC(=O)[C@@H]1CCCN1C(=O)[C@H](O)[C@H](Cc1ccccc1)NC(=O)OCc1ccccc1 [Compound 23, (2S, 3R) and (2S, 3S) 3-(N-Benzyloxycarbonyl)amino-2-hydroxy-4-phenylbutyryl-L-prolyl-tert-butyl Amide]",IC50,HIV-1 protease [1],300 µM
O=C1N(Cc2ccc(CO)cc2)[C@H](Cc2ccccc2)[C@H](O)[C@@H](O)[C@@H](Cc2ccccc2)N1Cc1ccc(CO)cc1 [DMP 323],IC50,HIV-1 protease [3],0.036 µM
same,Ki,HIV-1 protease [3],0.00027 µM
"CSC[C@H](NC(=O)COc1cccc2cnccc12)C(=O)N[C@@H](Cc1ccccc1)[C@H](O)C(=O)N1CSC[C@H]1C(=O)NC(C)(C)C [KNI-272, reference compound]",Ki against HIV PR relative to compound 2,HIV-1 protease [1]; compared with 2,almost five orders of magnitude lower
"(2S, 3R) and (2S, 3S) 3-(N-Benzyloxycarbonyl)amino-2-hydroxy-4-phenylbutyryl-L-prolyl-tert-butyl Amide [Compound 24]",IC50,HIV-1 protease [1],2 µM
